Reference: paper PMC3037362, “Small Molecule Inhibitors of Staphylococcus aureus RnpA Alter Cellular mRNA Turnover, Exhibit Antimicrobial Activity, and Attenuate Pathogenesis” (PLoS Pathogens, 2011)

Legend:
[1] = biological target: T1, RnpA (protein component of ribonuclease P) (Staphylococcus aureus, UniProt P0A0H5); test: RiboGreen fluorescence RNA degradation screen; agarose gel titration of spa mRNA degradation by purified RnpA; assay type: biochemical
T1 construct: recombinant full-length predicted open reading frame, N-terminal hexahistidine tag
Text: RiboGreen fluorescence RNA degradation screen; agarose gel titration of spa mRNA degradation by purified RnpA on RnpA (protein component of ribonuclease P) | five of these molecules were bona-fide inhibitors of RnpA-mediated RNA degradation (Figure 3B). One of these compounds, RNPA1000

[2] = biological target: T2, RNase III (Escherichia coli, UniProt P0A7Y0); test: in vitro ribonuclease activity of commercial enzyme (off-target counter-assay, data not shown); assay type: biochemical
T2 construct: gene rnc
T2 sequence (P0A7Y0 whole entry): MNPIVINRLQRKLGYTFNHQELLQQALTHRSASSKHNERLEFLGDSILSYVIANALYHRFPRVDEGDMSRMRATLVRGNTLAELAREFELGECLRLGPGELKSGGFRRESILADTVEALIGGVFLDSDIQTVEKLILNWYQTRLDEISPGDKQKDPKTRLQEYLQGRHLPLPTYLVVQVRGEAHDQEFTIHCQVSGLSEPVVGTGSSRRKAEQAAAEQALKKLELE

T1 sequence (P0A0H5 whole entry): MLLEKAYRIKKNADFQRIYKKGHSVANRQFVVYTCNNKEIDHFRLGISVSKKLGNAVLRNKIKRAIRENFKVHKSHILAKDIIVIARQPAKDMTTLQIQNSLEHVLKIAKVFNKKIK

Cc1cc(/C=C(/C#N)C(=O)Nc2cccc(Br)c2)c(C)n1-c1ccc(C(=O)O)cc1 [RNPA1000]
IC50 [1]: 100 to 125 µM | IC50 [2]: 500 to 750 µM
